Results from a melting point compilation (Tetko et al.; mined from patent text by program, amines drawn as free bases though some values may be those of a salt).

| SMILES | melting point |
| --- | --- |
| COc1ccc(Br)cc1-c1cc(-c2ccc(Br)cc2)on1 | 127 to 159 °C |
| Cc1ccc(Cc2cnc(NCCSCc3cccc(CN(C)C)c3)[nH]c2=O)cn1 | 122 to 125 °C |
| CCn1cc(C(=O)O)c(=O)c2cc(F)c(Cl)cc21 | 279 to 281 °C |
| O=c1c2c(CSc3ncnc4[nH]cnc34)cccc2nc(C(F)(F)F)n1-c1ccccc1Cl | 218 to 219 °C |
| CC(=O)Nc1cccc(OCc2cc([N+](=O)[O-])ccc2C(=O)O)c1 | 225 °C |
| Cc1c(C(=O)O)cnn1-c1c(Cl)cc(Cl)cc1Cl | 184 to 186 °C |
| O=C1NC(=O)c2c1c(-c1ccccc1Cl)cc1oc3cc(OCCCN4CCCC4)c(O)cc3c21 | 302 to 304 °C |
| Cc1cccc(C(C)(C)CC(O)(C(=O)Nc2ccc3c(c2)COC3=O)C(F)(F)F)c1 (configuration not stated) | 152 to 153 °C |
| O=C(OCc1ccccc1)c1cc2ccccc2[nH]1 | 136 °C |
| COC(=O)c1cc(N)c(C)s1 | 90 to 91 °C |
| CCCCNC(=NC#N)Nc1cccnc1 | 96 to 97 °C |
| CC(C)N(CCC1(c2ccccc2)C(=O)NCN2CCCCC21)C(C)C (configuration not stated) | 164 to 166 °C |
| CSc1cc(C)c(O)cc1C | 98 to 99 °C |
| CSc1c(F)ccc2onc(OCCNC(=O)OC(C)(C)C)c12 | 91 to 92 °C |
| Cc1c(C(=O)NCC(N)=O)cccc1-c1cccc2cc(Cc3cccc(C(F)(F)F)c3)sc12 | 124 to 125 °C |
| OCc1nc2n(n1)-c1cccnc1N(c1ccc(Cl)cc1)C2 | 240 to 245 °C |
| CCCNC(=O)C1=C(C(=O)Nc2cc(OC3CCCC3)c(Cl)cc2F)CCCC1 | 138 to 140 °C |
| Cc1ccc(CCC(=O)NC(C)c2ccc(NS(C)(=O)=O)c(F)c2)cc1C (configuration not stated) | 176 to 177 °C |
| CCCCOC(=O)[C@H]1CN(c2cc(F)c(N3CCOCC3)c(F)c2)C(=O)O1 | 99 to 100 °C |
| CC(C)(C)NC(=O)C(Br)CCl (configuration not stated) | 163 to 168 °C |
| CN(C)S(=O)(=O)c1cc(C(=O)O)cc(N2CCCC2)c1Oc1ccccc1 | 214 to 215 °C |
| O=C(O)CCOc1cccc(F)c1 | 90 to 91 °C |
| Cc1ccccc1C(=O)Nc1nc2ccccc2c(=O)n1C | 185 to 186 °C |
| COc1ccc(-c2nnc(N3CCC(O)CC3)nc2-c2ccc(OC)cc2)cc1 | 105 to 108 °C |
| CCSC1(c2cc(F)cc(OCc3ccc4c(ccc(=O)n4C)c3)c2)CCOCC1 | 68 to 72 °C |
| CC(C)n1nnnc1-c1ccc(N)c([N+](=O)[O-])c1 | 126 to 128 °C |

| SMILES | melting point |
| --- | --- |
| CNC1=NS(=O)(=O)N=C1NCCSCc1ccc(CN(C)C)s1 | 60.5 to 66 °C |
| CC(=O)OCC(=O)c1ccc(C)cc1C | 43 to 45 °C |
| O=C(NCCc1cccc2ccc(O)cc12)C1CC1 | 140 to 141 °C |
| Cc1c(-c2ccccc2)c(=O)[nH]c2ccccc12 | 266 to 268 °C |
| Cc1cccc(C(=O)O)c1NC(=O)COc1ccccc1 | 174 to 176 °C |
| C=C(C)COc1ccc2c(=O)c(C)c(-c3ccccc3)oc2c1C(=O)C=Cc1cccc(OC)c1 | 131 to 134 °C |
| CC(NC(=O)C(NC(=O)c1ccccc1)SC(=O)c1ccccc1)C(=O)N1CCCC1C(=O)O (configuration not stated) | 185 to 188 °C |
| CC(C)C[C@H](NC(=O)C(S)[C@@H](N)Cc1ccccc1)C(=O)O (some centres not stated) | 96 to 105 °C |
| O=C(c1ccccc1SSc1ccccc1C(=O)N1CCSCC1)N1CCSCC1 | 90 to 92 °C |
| CS(=O)(=O)c1ccc(-c2cc(Cl)c(Cl)cc2-c2ccc(F)cc2)cc1 | 144 °C |
| Cc1ncsc1C(O)c1cccc(N)c1 (configuration not stated) | 137 to 138 °C |
| NC(=O)c1cc(NCc2ccccc2Cl)c([N+](=O)[O-])cc1[N+](=O)[O-] | 158 to 161 °C |
| CC(=O)NC[C@H]1CN(c2cc(F)c(N3CCC(Cc4noc(-c5ccccc5)n4)CC3)c(F)c2)C(=O)O1 | 152 to 154 °C |
| CCOc1cc2c(Nc3cc(OC)c(Cl)cc3Cl)c(C#N)cnc2cc1OCC1CCN(C)CC1 | 182 to 186 °C |
| CC(C)(C)OC(=O)c1ccc2[nH]ccc2c1 | 91 to 93 °C |
| O=C(Cc1ccccc1Nc1c(Cl)cccc1Cl)OCc1ccncc1 | 121 to 123 °C |
| COC(=O)c1cc(NC2CCOCC2)nc(Cl)n1 | 190 to 192 °C |
| Cc1ccc(C=NNC(=O)c2ccc(O)cc2)s1 | 216 °C |
| CN(C)c1nn2nnnc2c2c1CCCC2 | 239 to 240 °C |
| CC(=NOCC(N)=O)c1ccc(Cl)c(Cl)c1 | 111 to 112 °C |
| COc1ccc2c(=O)sc(C(=O)O)cc2c1 | 278 to 279 °C |
| CSCC(C)Nc1nccc(-c2ccnc(Cl)c2)n1 (configuration not stated) | 103 to 106 °C |
| CC1(C)NC(SCc2ccccc2)=NC1=S | 133 to 134 °C |
| CC(=O)NS(=O)(=O)c1ccc2ccc(Oc3c(Cl)cc(C(F)(F)F)cc3Cl)cc2c1 | 137 °C |
| Cc1c(N2CCNC(C)C2)c(F)cc2c(=O)c(C(=O)O)cn(C3CC3)c12 (configuration not stated) | 206 to 208 °C |

Other lines, results leading:

| melting point | SMILES |
| --- | --- |
| 117 °C | COc1ccc2oc(Cc3cccnc3)c(CCNC(C)=O)c2c1 |
| 154 to 155 °C | CCOC(=O)c1c[nH]cc1-c1ccc(C)cc1 |
| 102 to 105 °C | COc1nc2cc([N+](=O)[O-])c(C)c(C(=O)N(C)CC(=O)OC(C)(C)C)c2nc1OC |
| 215 °C | Cc1nn2c(C(F)(F)F)cc(-c3cccc(C(F)(F)F)c3)nc2c1C#N |
| 145 to 147 °C | COC(SC)C(=O)c1[nH]c2cc(Br)c(Cl)cc2c1-c1ccccc1 (configuration not stated) |
| 118 to 120 °C | N#Cc1cc(Cl)ccc1Oc1cccc(O)c1 |
| 218 to 228 °C | CC(=O)Nc1cc(Oc2ccc3c(C(=O)Nc4ccc(N5CCC[C@H](N)C5)c(C(F)(F)F)c4)cccc3c2)ncn1 |
| 304 to 307 °C | CC1(C)Oc2ccc(S(C)(=O)=O)cc2[C@@H](N2CCSC2=NC#N)[C@@H]1O (relative stereo) |
| 186 to 188 °C | COc1c(C)cnc(CSc2nc3ncccc3[nH]2)c1C |
| 148 to 153 °C | CN1CCC(=O)C(=C2SC=CS2)C1=O |
| 151 to 157 °C | C#CCOc1cc(C(=O)O)n(-c2ncc(Cl)cc2Cl)n1 |
| 176 to 177 °C | CCOC(=O)c1cn(C2CC2)c2c(F)c(F)c(F)c(C)c2c1=O |
| 250 °C | NS(=O)(=O)c1cccc(-c2noc(-c3cnn4c(C(F)(F)F)cc(-c5ccc(C(F)(F)F)c(OCC(F)(F)F)c5)nc34)n2)c1 |
| 195 °C | O=C(O)c1cn(-c2ccnc3ccccc23)cc1C1CC1 |
| 154 to 157 °C | Cc1cccc(COc2cccc(OCc3ccc4ccccc4n3)c2)c1OCC(=O)O |
| 103 °C | O=c1ccc2ccc(OCCCCCc3ccccc3)cc2o1 |
| 269 °C | CCNC(=O)Nc1ccc(C#Cc2ccc(N3CC4CCC(C3)N4C)nn2)cc1 |
| 224 °C | CC(C)Oc1nsc(NC(=O)C(C)C)c1C#N |
| 158 to 159 °C | CC1(C2CC2)OC(=O)Nc2ccc(-c3cccc(Cl)c3)cc21 (configuration not stated) |
| 260 to 262 °C | Cc1cc2c(nc(C)n2-c2ccc(C#N)cc2)c(C)n1 |
| 165 to 167 °C | Cc1cc(C(=O)N2CCOCC2)ncc1C(c1cc(F)ccc1F)S(=O)(=O)c1ccc(F)cc1 (configuration not stated) |
| 50 to 51 °C | Clc1cccc2cnsc12 |
| 160 to 164 °C | COc1ccc(OCc2nc(-c3ccc(F)cc3)c(-c3ccc(S(C)(=O)=O)cc3)s2)cc1 |
| 168 to 170 °C | S=C(NC(=S)c1c(Cl)cccc1Cl)Nc1ccc(Cl)c(Cl)c1 |
| 150 to 151 °C | O=C(O)C1=NC(c2ccc(Cl)cc2Cl)N(c2ccc(Cl)cc2)C1 (configuration not stated) |
| 248 °C | O=C1Nc2ccccc2SC(c2ccccc2)C1CO (configuration not stated) |

| melting point | SMILES |
| --- | --- |
| 124 to 126 °C | COc1cc(OC)cc(N2CCN(C(=O)Nc3cc(C(C)O)c(C)nc3OC)CC2)c1 (configuration not stated) |
| 265 to 268 °C | CCc1cc2oc3cc(-c4ccccc4Cl)c4c(c3c2cc1O)C(=O)NC4=O |
| 117 to 119 °C | Brc1ccc(-c2csc(Br)n2)cc1 |
| > 300 °C | O=C(O)c1c2c(nc3ccc(F)cc13)-c1ccc(-c3ccc(F)cc3F)cc1CCC2 |
| 55 °C | CCCCCCCCCCCCCCCCCCOP(=O)(Cc1cc(Cl)c(O)c(C(C)(C)C)c1)OCCCCCCCCCCCCCCCCCC |
| 96 to 98 °C | CO/C=C(/C(=O)OC)c1ccccc1Oc1cc(OCc2ccc([N+](=O)[O-])cc2)ncn1 |
| 185 to 190 °C | N#Cc1cc2c(Cl)ncnc2s1 |
| 225 to 227 °C | NC(=O)C1CCN(C(=O)CNC(=O)CNC(=O)CN2CCCC2=O)CC1 |
| 118 to 121 °C | O=C(O)COc1cccc2c1CC(SCc1ccccc1)c1sc(-c3ccc4ccccc4c3)nc1-2 (configuration not stated) |
| 153 to 157 °C | CCCCOC(=O)n1nc(-c2cc(Cl)c(C)c(Cl)c2)ccc1=O |
| 137 to 139 °C | COc1ccc(C(=O)c2ccccc2)c([N+](=O)[O-])c1O |
| 172 to 173 °C | CC(=O)OCc1c(Br)cccc1N1Cc2cc(C(C)(C)C)sc2C1=O |
| 224 to 226 °C | Cc1nn(-c2ccccn2)c2ncc(C(=O)c3ccccc3)c(O)c12 |
| 266 to 269 °C | Nc1nc2c(ncn2C2CC(CO)C(O)C2F)c(=O)[nH]1 (configuration not stated) |
| 163 to 168 °C | N#Cc1cc(NC(=O)c2cc3ccccc3s2)ccc1N(CCO)CCO |
| 87 to 88 °C | O=[N+]([O-])c1ccc(Cc2cccnc2)cc1 |
| 164 to 168 °C | Cn1nnc2sc([N+](=O)[O-])cc2c1=O |
| 207 to 208 °C | Cc1cc(-c2cc(O)c(Cl)cc2F)c(=O)n(C)c1C(F)(F)F |
| 195 to 197 °C | CC(C)(O)Cn1c(CON=C2CCCC2)nc2c(N)nc3cccnc3c21 |
| 120 to 121 °C | Cc1oc(-c2ccccc2)nc1COc1nn(Cc2ccc(Oc3ccccc3)cc2)cc1CCC(=O)O |
| 127 to 130 °C | Cc1ncc(CSC(=O)c2ccccc2)c(C=O)c1O |
| 223 to 224 °C | CCS(=O)(=O)c1cc2c(cc1OC)CCn1c3c(c(-c4cccs4)c1-2)CCCCN(C(C)(C)C)C3=O |
| 168 to 170 °C | O=C1CCC(N2Cc3c(OCc4cc(CN5CCOCC5)co4)cccc3C2=O)C(=O)N1 (configuration not stated) |
| 111 to 116 °C | Brc1ccc2c3c(cccc13)C(NCCCCCCCCCCCCn1ccnc1)=N2 |
| 100 to 102 °C | Nc1c(-c2ccccc2)cc(-c2ccccc2)c2cccnc12 |
